# Laboratory results: patent US5847092A (Zambon Group S.p.A., priority 1994, dated 1998)
# Where two headings read alike, the source gives them in different places.
# Columns and labels:
# [1] = system: Streptococcus pyogenes C 203; assay: In vivo antibacterial activity, experimental pulmonary infection in mouse; settings: for ED50: Streptococcus pyogenes, C203, ip, 240 h, intraperitoneal single dose, read-out: average protecting dose PD50
# Experimental: The in vivo antibacterial activity of the compounds of formula (I), expressed as average protecting dose PD50 (mg/Kg), was evaluated by means of experimental pulmonary infection induced in mouse by Streptococcus pyogenes (example 23).
# b) In vivo antibacterial activity
# The therapeutical effectiveness, expressed as average protecting dose (PD50), of the considered compounds of formula (I) was evaluated by experimental pulmonary infection induced in mouse by Streptococcus pyogenesC 203.
# Charles River albin mice (strain CD 1), of body weight comprised between 23-35 g, stabulated in groups of 6 for cage and normo-feeded with standard diet and water ad libitum were used. A suspension of S. pyogenes C 203 (corresponding about to 10^8 UFC) in tryptose broth (0.05 ml) was intranasally administered to each mouse anesthesized with a mixture of ethyl ether and chloroform.
# The compounds under examination were intraperitoneally administered as a single dose, in 0.2% Tween suspension, 24 hours before or 1 hour after the infection.
# Mice mortality observation was prolonged up to 10 days from the infection.
# PD50 calculation, expressed as (mg/Kg), was carried out through the analysis of probit.
# In vivo antibacterial activity, expressed as average protecting dose PD50 (mg/Kg), 24 hours before and 1 hour after the experimental pulmonary infection induced in mouse by Streptococcus pyogenes C 203, of the compounds 4, 10, 16-19, 21, 23, 26-27, 29-30, 33-35 and 38 and of the reference compounds Roxithromycin and Clarithromycin.
# [2] = system: Gram-positive and Gram-negative bacteria; settings: literature; cited from earlier work
# [3] = literature; cited from earlier work
# [4] = system: Enterococcus faecalis ATCC 29212; assay: In vitro antibacterial activity, MIC, broth microdilution; type: cell-based; settings: Enterococcus faecalis, ATCC29212; E. faecalis ATCC 29212; MHB; 37° C., 18 hours; read-out: minimum inhibiting concentration MIC
# Method in brief: (§1)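 MIC values, in μg/ml, correspond to the lowest antibiotic concentration preventing bacterial development after 18 hours at 37 °C. Testing used graded twofold broth dilution in Mueller Hinton Broth, with 5% horse serum added for Streptococcus pneumoniae and Streptococcus pyogenes.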
# [5] = system: Streptococcus pyogenes A 26; assay: as above; type: cell-based; settings: Streptococcus pyogenes, A26; S. pyogenes A 26; MHB + 5% horse serum; 37° C., 18 hours; read-out: minimum inhibiting concentration MIC
# Method in brief: as §1
# [6] = system: Streptococcus pneumoniae BS 3; assay: as above; type: cell-based; settings: Streptococcus pneumoniae, BS3; S. pneumoniae BS 3; MHB + 5% horse serum; 37° C., 18 hours; read-out: minimum inhibiting concentration MIC
# Method in brief: as §1
# [7] = system: Escherichia coli ATCC 25922; assay: as above; type: cell-based; settings: Escherichia coli, ATCC25922; E. coli ATCC 25922; MHB; 37° C., 18 hours; read-out: minimum inhibiting concentration MIC
# Method in brief: as §1
# [8] = system: Klebsiella pneumoniae ZC 2; assay: as above; type: cell-based; settings: Klebsiella pneumoniae, ZC2; K. pneumoniae ZC 2; MHB; 37° C., 18 hours; read-out: minimum inhibiting concentration MIC
# Method in brief: as §1
# [9] = system: Staphylococcus aureus PV 14; assay: as above; type: cell-based; settings: Staphylococcus aureus, PV14; S. aureus PV 14; MHB; 37° C., 18 hours; read-out: minimum inhibiting concentration MIC
# Method in brief: as §1
# [10] = system: Streptococcus pneumoniae BS 4; assay: as above; type: cell-based; settings: Streptococcus pneumoniae, BS4; S. pneumoniae BS 4; MHB + 5% horse serum; 37° C., 18 hours; read-out: minimum inhibiting concentration MIC
# Method in brief: as §1
# [11] = system: Streptococcus pyogenes C 203; assay: as above; type: cell-based; settings: Streptococcus pyogenes, C203; S. pyogenes C 203; MHB + 5% horse serum; 37° C., 18 hours; read-out: minimum inhibiting concentration MIC
# Method in brief: as §1
# [12] = literature; cited from earlier work; remark: listed apart in the source
# [13] = system: eukaryotic parasites; settings: literature; cited from earlier work
Structure (SMILES),ED50 ([1]; 1 hour after infection),ED50 ([1]; 24 hours before infection),"in vivo activity, pulmonary infection (in words) ([1]; administered 24 hours before the infection)",spectrum of activity in vitro (in words) [2],stability to the acids (in words) [3],MIC [4],MIC [5],MIC [6],MIC [7],MIC [8],MIC [9],MIC [10],MIC [11],pharmacokinetic properties / bioavailability (in words) [12],activity against eukaryotic parasites (in words) [13]
"CC[C@H]1OC(=O)[C@H](C)[C@@H](O[C@H]2C[C@@](C)(OC)[C@@H](O)[C@H](C)O2)[C@H](C)[C@@H](O[C@@H]2O[C@H](C)C[C@H](N(C)C)[C@H]2O)[C@](C)(O)C[C@@H](C)/C(=N\OCOCCOC)[C@H](C)[C@@H](O)[C@]1(C)O [Roxithromycin, Erythromycin A 9-[0-[(2-methoxyethoxy)methyl]oxime], reference compound]",0.9 mg/kg,> 25 mg/kg,inactive,comparable to that of Erythromycin A,superior stability to the acids,4 µg/mL,0.0625 µg/mL,0.0312 µg/mL,28 µg/mL,256 µg/mL,1 µg/mL,0.0625 µg/mL,0.0625 µg/mL,better pharmacokinetic properties,–
CC[C@H]1OC(=O)[C@H](C)[C@@H](O[C@H]2C[C@@](C)(OC)[C@@H](O)[C@H](C)O2)[C@H](C)[C@@H](O[C@@H]2O[C@H](C)C[C@H](N(C)C)[C@H]2O)[C@](C)(O)C[C@@H](C)C(=O)[C@H](C)[C@@H](O)[C@]1(C)O [Erythromycin A],–,–,–,antibacterial activity mainly against Gram-positive microorganisms,–,–,–,–,–,–,–,–,–,–,active against eukaryotic parasites
